The results in this text go back to a melting point compilation (Tetko et al.; mined from patent text by program, amines drawn as free bases though some values may be those of a salt).

Starred links: 1 amine or outer side, 2 acyl side, 3 side chain; linkers in the order of their positions; H or OH if unused. Residues, ends and D or L forms follow the SMILES beside them. *: point of attachment. 4Abz = Nc1ccc(C(=O)O)cc1; Cbz = O=C(OCc1ccccc1)*; CO = O=C([*:1])[*:2]; CF3 = FC(F)(F)* A value given as a limit tells only on which side of the number the result lay.

Take `O=S(=O)(CC1CC1)c1nc(-c2ccccn2)c(-c2ccccn2)[nH]1`: the melting point lay within 210 to 212 °C.
To `C=CCc1c(O)c(Cl)cc(F)c1N1C(=O)c2ccccc2C1=O` belongs 134 to 136 °C.
Molecule `O=C(O)c1ccc(C(F)(F)F)cc1SC1CCCCC1` had a melting point of 115 to 116 °C.
To `CC(C(=O)O)c1ccc2cc(OCCCCCCc3cccc(O)c3O)ccc2c1` (configuration not stated) belongs 136 to 139 °C; to `Clc1cccc(Nc2ncnc3[nH]nc(NCc4cccc5c4OCO5)c23)c1`, 214 to 215 °C; to `COc1cc(-c2ccc(Cl)s2)cc2oc(=O)c(C)c(C)c12`, 152 to 154 °C.
With `CCCC(CCC)(CCC)NC(=O)NC` the figure was 120 °C; with `O=c1ccc2c(C(F)(F)F)cc(C(F)(F)F)nc2[nH]1`, 182 to 184 °C; with `CC1COc2c(N3CCSCC3)c(F)cc3c(=O)c(C(=O)O)cn1c23` (configuration not stated), greater than 300 °C.
With `CC(C)(C)c1ccc(Nc2cccc(Br)n2)c(N)c1` the figure was 125 to 128 °C; with `CCCCC[C@@H](C(=O)O)c1cccc2c1OCO2`, 47 to 48 °C; with `CC1(CNC(=O)C(F)(F)F)CN(c2cc3c(cc2F)c(=O)c(C(=O)O)cn3C2CC2)C1`, 265 to 272 °C.
Regarding `COC(=O)[C@H](Cc1ccccc1)NC(=O)[C@H](CC(C)C)NC(=O)OCc1ccccc1` (Cbz-Leu-Phe-OMe), the melting point was in the range of 91 to 93 °C.
For `CCn1c2ccccc2c2cc(NC(=O)c3c(C)cccc3C)ccc21`, the melting point was in the range of 192 to 193 °C.
To `COC(=O)c1cccn1Cc1ccccc1` belongs 31 to 32 °C; to `O=C(Nc1cc(Cl)ccc1-c1nnn[nH]1)c1cnn(-c2ccc(Cl)cc2)c1C(F)(F)F`, 176 to 180 °C.
With `CC(Oc1ccc(N(C)c2nc3cc(Cl)ccc3o2)cc1)C(=O)O` (configuration not stated) the figure was 152 to 154 °C; with `CCC1(c2ccc3cc(OC)ccc3c2)OC(C(=O)OC)C(C(=O)OC)O1` (configuration not stated), 72 to 73 °C; with `CCOC(=O)c1c(CN2CCCCC2)nc2cc3c(cc2c1-c1ccc(OC)c(OC)c1)OCCO3`, 158 to 160 °C.
To `S=C=NCC1CC(c2ccc(Br)cc2)=NO1` (configuration not stated) belongs 123 to 125 °C; to `O=C1C(=O)c2ccccc2C2=C1SCC1(CCN(CC(O)COc3ccc4ccccc4c3)CC1)O2` (configuration not stated), 164 to 167 °C; to `Nc1cc(O)c(C(=O)NCC2CN(Cc3ccccc3)CCO2)cc1Cl` (configuration not stated), 153 to 155 °C.
Take `Nc1ncnc2c1c(-c1ccc(Oc3ccccc3)cc1)cn2CCCCCCCCN1C(=O)c2ccccc2C1=O`: the melting point was 85 to 86 °C.
For the molecule `C=C(C)[C@H](C(=O)OC(c1ccccc1)c1ccccc1)N1C(=O)[C@@H]2N=C(c3ccccc3)O[C@@H]21`, the melting point is 116 to 118 °C.
In the case of `COC(CBr)(CCCC(=O)NN)OC`, the melting point fell in the range of 58 to 60 °C.
To `CC(=O)C1CCC2C3CCC4CC(C(C(=O)O)C(=O)O)CCC4(C)C3CCC12C` (configuration not stated) belongs 214 to 215 °C.
To `Clc1ncccc1-c1ccccc1` belongs 48 °C; to `CCCNC(=S)NS(=O)(=O)c1cc2c(cc1OC)OC(C)(C)C(NC(=O)c1cc(Cl)ccc1OC)C2` (configuration not stated), 210 to 211 °C; to `c1ccc(OCCSCc2nnc(-c3ccc4cc(CN5CCCCC5)ccc4c3)o2)cc1`, 93 to 94 °C.
To `O=S(=O)(c1ccccc1)c1cc[nH]c1-c1ccc(Cl)cc1` belongs 158 to 159 °C; to `COc1ccc(CCc2ccc(NC(=O)c3ccc(C)cc3O)cc2)cc1OC`, 162 to 164 °C.
Molecule `Nc1ccc(OCCCCCC(=O)OCCOCCOC(=O)CCCCCOc2ccc(N)cc2)cc1` showed a melting point of 56 to 58 °C.
To `O=C(Nc1ccc(N2C[C@@H]3C[C@H]2CO3)c(F)c1)OCc1ccccc1` belongs 120 to 121 °C; to `CN(C)Cc1ccc(C=CC(=O)O)s1`, 224 to 225 °C; to `CCCCn1nc2c(N)nc3ccccc3c2c1CC(C)C`, 165 to 166 °C.
To `CS(=O)(=O)c1ccc(-c2[nH]c3ccccc3c2-c2ccc(Cl)cc2)cc1` belongs 198 to 200 °C; to `CCCc1nn(CC)c(CO)c1Cc1ccc(-c2ccccc2NS(=O)(=O)C(F)(F)F)cc1`, 59 to 64 °C; to `COc1ccc2c(c1OC)CCN(Cc1ccc(-c3ccc(-c4cccc(N)n4)cc3)cc1)C2`, 205 to 209 °C.
To `CCOC(=O)C1=C(C)NC(C)=C(C(=O)N[C@H](C(=O)OCC)C(C)C)[C@@H]1c1cccc([N+](=O)[O-])c1` belongs 135 to 136 °C.
Molecule `O=C1c2ccccc2C(=O)N1CC#Cc1ccc(Cl)cc1C(O)c1ccccc1F` (configuration not stated) showed a melting point of 158 to 160 °C.
The molecule `CN1c2ccc(Cl)cc2C(c2ccccc2)=NCC1CN1CCCCC1` (configuration not stated) displayed a melting point of 143 to 145 °C.
With `N#Cc1cccc(-c2ccc3c(c2)NC(=O)CO3)c1` the figure was 242 °C; with `CSc1ccc(CCCC(=O)O)cc1`, 53 to 55 °C; with `OC1(c2ccc3c(c2)OCO3)CCN(CC=Cc2ccccc2)CC1`, 114 to 115 °C.
Consider `CC(C)CC(=O)Nc1cccc(-c2ccnc3c(-c4cccc(Cl)c4)cnn23)c1`, for which the melting point was 169 to 171 °C.
With `Cc1cc(OC(=S)N(C)C)c(C(C)(C)C)cc1C=O`, the melting point was 79.5 to 81 °C.
In the case of `Cc1noc(NS(=O)(=O)c2ccccc2-c2ccc(-c3ncccn3)cc2CN2CCC(C)(C)C2=O)c1C`, the melting point fell in the range of 105 to 115 °C.
For the molecule `O=C(O)CCCC=Cc1nn(-c2ccc(F)cc2)c2c1CCC2`, the melting point was in the range of 90 to 91 °C.
With `CNc1c([N+](=O)[O-])ccc(Sc2ccccc2)c1Cl` the figure was 79 °C.
As for `COCOc1ccc(C=O)c(Cl)c1OCc1ccccc1`, the melting point fell in the range of 66 to 67 °C.
Take `CC(=O)c1ccc(C=CC(=O)NCCO)cc1`: the melting point lay in the range of 124 to 125 °C.
To `COc1ccc(-c2nnc(Nc3ccc4cccnc4c3)cc2-c2ccc(C(F)(F)F)cc2)cc1` belongs 215 to 217 °C; to `CC(C)C(NC(=O)Nc1ccc(C(=O)NCC(=O)O)cc1)C(=O)N1CCCC1C(=O)NC(C(=O)C(F)(F)F)C(C)C` (stereo not drawn) ({Gly-4Abz-CO}-Val-Pro-Val-CF3; configuration not given here), 98 to 128 °C; to `CC(=N)Nc1nc(-c2ccccn2)nc2ccccc12`, 172 to 173 °C.
As to `CC(C)(C)c1ccc(C2(CN)CC2)cc1`, the melting point was in the range of 39 to 41 °C.
To `O=C(Nc1ccc(S(=O)(=O)c2ccccn2)cc1)C(O)(C(F)F)C(F)F` belongs 200 to 202 °C.
With `CCCCCCCCCC(=O)Nc1cc(NC(=O)CCCCCCCCC)cc(C(=O)O)c1` the figure was 208 to 209 °C; with `COc1ccc(C[C@H](Nc2nc3ccc(Cl)cc3cc2C(=O)O)C(=O)O)cc1`, 155 to 158 °C.
With `N#CC1=C(c2ccccc2)Nc2ccccc2S1=O` (configuration not stated) the figure was 182 to 184 °C; with `CC(C)Nc1nc2c(F)c(F)c(Cl)cc2[nH]1`, 175 to 178 °C; with `O=c1c2[nH]cnc2n(CC2CC2)c(=O)n1CC1CC1`, 203 °C.
The molecule `CC(C)(C)OC(=O)NCc1ccc(CNC(=O)N2CCN(C(=O)OCc3ccccc3)CC2)cc1` gave a melting point of 128 °C.
In turn, `CC1(C)C(=O)Nc2cc3[nH]c(-c4cnsn4)nc3cc21` registered a melting point greater than 300 °C.
With `COc1cc2c(cc1S(=O)(=O)c1ccc(Br)cc1)[C@@H](N1CCCC1=O)[C@H](O)C(C)(C)O2` (relative stereo), the melting point lay within 281 to 282 °C.
`CS(=O)(=O)c1ccc(-n2nc(CNC(=O)Nc3ccccc3)cc2-c2ccccc2)cc1` came in with a melting point of 95.7 to 104 °C.
To `CN(C)CCNc1nccc(N2CCCCCC2)n1` belongs 53 to 54.5 °C.
To `O=C1NC(=O)C2(CCc3cc(F)ccc32)N1` (racemic) belongs greater than 260 °C; to `CCc1cc2c(ccc(=O)n2Cc2ccc([N+](=O)[O-])cc2)c(CC)n1`, 153 to 156 °C.
To `COCCN(C)C(=O)Nc1c(C(=O)c2ccccc2)[nH]c2cc(Cl)ccc12` belongs 66 to 72 °C; to `CCCCCCCCCCc1ccc(C(=O)c2cc(Br)c(C(=O)c3ccc(CCCCCCCCCC)cc3)cc2Br)cc1`, 128 to 129 °C; to `COc1ccc(C(=O)Cc2c(Cl)cncc2Cl)c2c1OCCCCO2`, 142 to 143 °C.
With `COc1ccnc(CS(=O)c2nc3cc(C(F)(F)F)ccc3[nH]2)c1C` (configuration not stated), the melting point was in the range of 225 to 227 °C.
To `O=C(CCSCCOCCSCCC(=O)Nc1ccc(Nc2ccccc2)cc1)Nc1ccc(Nc2ccccc2)cc1` belongs 154 to 156 °C; to `CN1CCN(Cc2ccc(Nc3ccnc4cc(C(F)(F)F)ccc34)cc2)CC1`, 218 to 220 °C; to `O=C(O)c1cccc(CO[N+](=O)[O-])c1`, 123 to 125 °C.
With `CCC1C(C)=NN=C(c2ccccc2F)c2cc(OC)c(OC)cc21` (configuration not stated) the figure was 86 to 88 °C; with `Nc1ncccc1C(=O)NCC1CCN(CC2COc3ccccc3O2)CC1` (configuration not stated), 104 to 106 °C; with `CCC(=O)n1nc(-c2ccc(Cl)cc2)nc1C`, 108 to 109 °C.
With `COc1cccc(CCSc2c(O)cc(-c3ccccc3)oc2=O)c1` the figure was 112 to 113 °C; with `CC(C)(/C=C/Br)C(=O)O`, 30 °C.
Regarding `COc1ccc2c(c1)c(C1CCN(Cc3cccc(C(=O)O)c3)CC1)cn2CCc1ccsc1`, the melting point was 217 to 218 °C.
To `COc1cc2cc3c(=O)[nH]cnc3cc2cc1OCCN1CCOCC1` belongs 230 to 232 °C.
With `CN1CCN(c2cc3c(F)cccc3c(=O)[nH]2)CC1` the figure was 238 to 239 °C; with `COc1ccc(C(=O)C(=O)c2cccnc2)cc1`, 70 to 72 °C; with `C=Cn1cc(C(=O)O)c(=O)c2cc(F)c(N3CCOCC3)cc21`, 218 to 220 °C.
The molecule `Fc1c(F)c(F)c(C(Cl)=NNc2ccccc2)c(F)c1F` came in with a melting point of 117 to 118 °C.
With `CC(C)n1nc(-c2sc(C(N)=O)nc2-c2cccc(Cl)c2)ccc1=O` the figure was 232 to 234 °C.

As usually defined, the melting point is the temperature, or range, at which the solid turns liquid.
